Assay results as given in US12704459B2, “Methods, compositions, and kits for assay signal amplification” (MESO SCALE TECHNOLOGIES, LLC., priority 2021, dated 2026).

Experiments:
[1] = test system: anti-SULFO-TAG antibody clones; assay: Competition assay: ligands SM, Bpy or A against TAG compound binding; design: species or system mouse; details: 2 μM of ligand
Description: FIGS. 20A-20I show the results of exemplary competitive binding assays between the TAG compounds shown in FIG. 18A and the SM, Bpy, or A ligands shown in FIG. 18A, with the anti-SULFO-TAG antibody clones described in Example 4. The graphs show the remaining ECL signal after anti-SULFO-TAG antibodies were exposed to 2 μM of each ligand, then varying concentrations of each of the TAG compounds. Lower ECL signal is indicative of stronger binding affinity to a particular ligand. The three panels in the right-most column show ECL signals from exposing the anti-SULFO-TAG antibody clones to 10 nM of the TAG compounds alone (without ligands).
To further verify the role of ligands in antibody recognition, the antibodies were coated on MSD® 96-well Small Spot Streptavidin plates and first exposed to 2 μM of ligands SM, Bpy, or A, then exposed to different concentrations of the TAG compounds as a competition assay.

[2] = ECL generation of free TAG compounds spiked into ECL read buffer; assay type: physicochemical; details: free TAG compound in ECL read buffer, 96-well bare carbon plates
Description: An epitope recognition study was performed on the eleven anti-SULFO-TAG antibody clones described in Example 4. To study the epitope recognition of these antibody clones, four organometallic Ru^2+ compounds (“TAG compounds”) with varying numbers of sulfomethyl-bipyridine (“SM”) or bipyridine (“Bpy”) ligands as shown in FIG. 18A were prepared. The SULFO-TAG is denoted as Ru^+2(SM)2A1, which includes an acid ligand (“A”) in one of the Bpy groups and is more similar in structure with Bpy than SM. ECL generation from each TAG compound was verified by spiking the TAG compounds into ECL read buffer, and the ECL signal from each free TAG compound was measured on 96-well bare carbon plates. […] The Ru(Bpy)3 ECL signal, when normalized for concentration, would be 248,576 ECL units, similar to the other TAG compounds.

Compound: c1ccc(-c2ccccn2)nc1 [Bpy, bipyridine]
- ligand binding / competition with antibody binding to Ru^+2(SM)3 and SULFO-TAG [1]: unable to significantly outcompete antibody binding

Compound: [Ru+2].c1ccc(-c2ccccn2)nc1.c1ccc(-c2ccccn2)nc1.c1ccc(-c2ccccn2)nc1 [Ru(Bpy)3]
- ECL signal, normalized for concentration [2]: 248,576 ECL units

Compound: sulfomethyl-bipyridine [SM]
- ligand binding / competition with antibody binding to Ru^+2(SM)3 and SULFO-TAG [1]: strongest binding
